According to paper PMC7247319, “The mitochondria-targeted peptide SS-31 binds lipid bilayers and modulates surface electrostatics as a key component of its mechanism of action” (The Journal of Biological Chemistry, 2020):
Where a SMILES comes first, the peptide text is derived from it. [ ]: non-standard residue; d: D form. Dmt = Cc1cc(O)cc(C)c1C[C@H](N)C(=O)O

Test system: mitoplasts from WT and Δcrd1 yeast
Assay: ANS-detected surface potential of mitoplasts
Parameters: species or system Saccharomyces cerevisiae
Excerpt: Figure 6. Interaction of SS-31 with isolated mitochondria. A, [ald]SS-31 binding with differing phospholipid composition. Left, percentages of total phospholipid of each species (phosphatidylcholine (PC), phosphatidylethanolamine (PE), cardiolipin (CL), monolyso-CL (MLCL), phosphatidylglycerol (PG), phosphatidic acid (PA), phosphatidylinositol (PI), phosphatidylserine (PS), and lysophosphatidylcholine (LPC)) in mitochondria from WT, Δtaz1, and Δcrd1 strains measured by shotgun lipidomics. Right, binding of 1 μM [ald]SS-31 with mitochondria isolated from WT, Δtaz1, and Δcrd1 yeast strains quantified as the mean fractional increase (F/F0) in aladan emission with increasing mitochondria concentration for fully energized mitochondria. Inset, relative binding of [ald]SS-31 to mitochondria (0.2 mg ml^−1) in the presence or absence of 1 μM valinomycin (val) as indicated. Values shown are means ± S.D. (error bars) (n = 3). B, comparison of [ald]SS-31 binding to mitochondria and model membranes. […]
The final goal of these experiments was to evaluate the effect of SS peptides on the surface electrostatic properties of mitochondrial membranes. […] We therefore compared the titration of mitoplasts with SS-31 and mono- and divalent cations (K^+ and Ca^2+, respectively) to evaluate the relative effects of each species on ANS-detected ψs (Fig. 6C). […]

Cc1cc(O)cc(C)c1C[C@H](NC(=O)[C@H](N)CCCNC(=N)N)C(=O)N[C@@H](CCCCN)C(=O)N[C@@H](Cc1ccccc1)C(N)=O [SS-31, D-Arg-2′6′-dimethyl-Tyr-Lys-Phe-NH2] (H-[dR][Dmt]KF-NH2) was tested, and the “effect of peptide addition prior to CaCl2 titration on Ca2+-mediated decrease in ψs” value (WT mitoplasts, 20 μM SS-31 added before CaCl2) was “strongly blunted the effects of Ca^2+ on surface potential” and the “effect on ANS fluorescence (ψs) of mitoplasts” value (titration of WT and Δcrd1 mitoplasts, n = 3) was “increase in ANS fluorescence”.
